Results from patent US10881110B2, “Herbicidal compositions comprising isoxazolo[5,4-b]pyridines” (BASF SE, priority 2014, dated 2021).
Where two headings read alike, the source gives them in different places.

Tests used:
Assay in all cases: greenhouse post-emergence herbicidal test
SASKR = format: in vivo, Salsola kali; set-up: key: scale 0 to 100
In short: (§1)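 Post-emergence greenhouse test: plants in loamy sand, sprayed at 1–15 cm height with aqueous spray liquor from 10% emulsion concentrates, kept at 10-25 °C or 20-35 °C by species. Damage scored 0–100 (100 = complete destruction), usually 20 days after treatment. Expected additive effect E from Colby: E=X+Y−(X·Y/100).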

MATCH = format: in vivo, Matricaria recutita; set-up: key to herbicidal activity against MATCH found: rating on a scale from 0 to 100; details: post emergence
In short: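 Visual rating at 20 days after treatment used a 0–100 scale, where 100 meant no emergence or complete destruction of above-ground parts. Seedlings of 1–15 cm, grown at species-dependent 10-25° C or 20-35° C, received water-based spray liquor containing the formulated components.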

IPOHE = format: in vivo, Ipomoea hederacea; set-up: key to herbicidal activity against IPOHE found: rating on a scale from 0 to 100; details: post emergence; for pest or weed control at 31.25 g/ha: 31.25 g/ha a.i.
In short: as §1

[1] = 6 days after treatment, g/ha a.i.: I.1 62.5, B.96 140, mixture 62.5+140
[2] = 6 days after treatment, g/ha a.i.: I.1 62.5, naptalam 50, mixture 62.5+50

O=C(O)c1cc(C2CC2)nc2onc(C3CC3)c12 [I.1]
herbicidal activity against SASKAR found (SASKR; 31.25 g/ha a.i.): 60 | herbicidal activity against SASKR found (SASKR; 31.25 g/ha a.i.): 20 | herbicidal activity against SASKR found (SASKR; 6 days after treatment, g/ha a.i.: I.1 31.25, naptalam 200, mixture 31.25+200): 65 | herbicidal activity against SASKR found (SASKR; [1]): 65 | herbicidal activity against SASKR found (SASKR; [2]): 65 | herbicidal activity against SASKR found (SASKR; 6 days after treatment, g/ha a.i.: I.1 62.5, naptalam 200, mixture 62.5+200): 65 | herbicidal activity against SASKR found (SASKR; application rate a.i.: I.1 31.25 g/ha, B.84 (paraquat-dichloride) 17.5 g/ha, alone or as mixture (composition 1.84)): 10 | pest or weed control at 31.25 g/ha (MATCH; Matricaria chamomilla, post-emergence, 480 h, I.1 alone 31.25 g/ha a.i., read-out: herbicidal activity against MATCH found): 0% | pest or weed control at 125 g/ha (MATCH; Matricaria chamomilla, post-emergence, 480 h, I.1 alone 125 g/ha a.i., read-out: herbicidal activity against MATCH found): 0% | pest or weed control at 62.5 g/ha (MATCH; Matricaria chamomilla, post-emergence, 480 h, 62.5 g/ha a.i., read-out: herbicidal activity against MATCH found): 50% | pest or weed control at 31.25 g/ha (MATCH; Matricaria chamomilla, post-emergence, 480 h, I.1 31.25 g/ha a.i., read-out: herbicidal activity against MATCH found): 20% | pest or weed control at 62.5 g/ha (MATCH; Matricaria chamomilla, post-emergence, 480 h, I.1 62.5 g/ha a.i., read-out: herbicidal activity against MATCH found): 30% | pest or weed control at 31.25 g/ha (MATCH; Matricaria chamomilla, post-emergence, 480 h, single active, 31.25 g/ha a.i., read-out: herbicidal activity against MATCH found): 15% | pest or weed control at 62.5 g/ha (MATCH; Matricaria chamomilla, post-emergence, 480 h, single active, 62.5 g/ha a.i., read-out: herbicidal activity against MATCH found): 60% | herbicidal activity against MATCH found (MATCH; 6 days after treatment, g/ha a.i.: I.1 31.25, naptalam 50, mixture 31.25+50): 0 | herbicidal activity against MATCH found (MATCH; 6 days after treatment, g/ha a.i.: I.1 31.25, naptalam 100, mixture 31.25+100): 0 | herbicidal activity against MATCH found (MATCH; [2]): 10 | herbicidal activity against MATCH found (MATCH; I.1 15.62 g/ha, B.95 1 g/ha a.i.): 10 | herbicidal activity against MATCH found (MATCH; I.1 31.25 g/ha, B.95 1 g/ha a.i.): 10 | herbicidal activity against MATCH found (MATCH; I.1 31.25 g/ha, B.95 2 g/ha a.i.): 10 | herbicidal activity against MATCH found (MATCH; I.1 62.5 g/ha, B.167 62.5 g/ha a.i.): 0 | herbicidal activity against MATCH found (MATCH; I.1 62.5 g/ha, B.167 125 g/ha a.i.): 0 | herbicidal activity against MATCH found (MATCH; I.1 62.5 g/ha, B.95 2 g/ha a.i.): 65 | herbicidal activity against MATCH found (MATCH; a.i. g/ha: I.1 20.8, B.192 62.5, 20 days after treatment): 60% | herbicidal activity against MATCH found (MATCH; a.i. g/ha: I.1 20.8, B.79 25, 20 days after treatment): 60% | herbicidal activity against MATCH found (MATCH; a.i. g/ha: I.1 31.25, B.67 125, 20 days after treatment): 30% | herbicidal activity against MATCH found (MATCH; a.i. g/ha: I.1 31.25, B.67 125, 20 days after treatment, sub-table r36-r43): 30% | herbicidal activity against MATCH found (MATCH; a.i. g/ha: I.1 31.25, B.69 25, 20 days after treatment): 30% | herbicidal activity against MATCH found (MATCH; a.i. g/ha: I.1 62.5, B.191 225, 20 days after treatment): 30% | herbicidal activity against MATCH found (MATCH; a.i. g/ha: I.1 62.5, B.67 125, 20 days after treatment): 0% | herbicidal activity against MATCH found (MATCH; application rate a.i.: I.1 20.8 g/ha, B.107 (topramezone) 6 g/ha, alone or as mixture (composition 1.107)): 60 | herbicidal activity against MATCH found (MATCH; application rate a.i.: I.1 31.25 g/ha, B.87 (carfentrazone-ethyl) 1.75 g/ha, alone or as mixture (composition 1.87)): 35 | herbicidal activity against MATCH found (MATCH; application rate a.i.: I.1 62.5 g/ha, B.84 (paraquat-dichloride) 17.5 g/ha, alone or as mixture (composition 1.84)): 80 | herbicidal activity against MATCH found (MATCH; application rate a.i.: I.1 62.5 g/ha, B.87 (carfentrazone-ethyl) 1.75 g/ha, alone or as mixture (composition 1.87)): 80 | herbicidal activity against MATCH found (MATCH; applied alone at 31.25 g/ha a.i.): 25 | herbicidal activity against MATCH found (MATCH; g/ha a.i.: I.1 31.25, B.24 2, mixture 31.25+2): 25 | herbicidal activity against MATCH found (MATCH; g/ha a.i.: I.1 125, B.24 2, mixture 125+2): 75 | herbicidal activity against MATCH found (MATCH; g/ha a.i.: I.1 125, B.63 0.5, mixture 125+0.5): 75 | pest or weed control at 31.25 g/ha (IPOHE; Ipomoea hederacea, post-emergence, 480 h, read-out: herbicidal activity against IPOHE found): 75% | pest or weed control at 62.5 g/ha (IPOHE; Ipomoea hederacea, post-emergence, 480 h, 62.5 g/ha a.i., read-out: herbicidal activity against IPOHE found): 90% | pest or weed control at 31.25 g/ha (IPOHE; Ipomoea hederacea, post-emergence, 480 h, single active, read-out: herbicidal activity against IPOHE found): 55% | pest or weed control at 125 g/ha (IPOHE; Ipomoea hederacea, post-emergence, 480 h, single active, 125 g/ha a.i., read-out: herbicidal activity against IPOHE found): 95% | herbicidal activity against IPOHE found (IPOHE; 6 days after treatment, g/ha a.i.: I.1 31.25, B.96 35, mixture 31.25+35): 70 | herbicidal activity against IPOHE found (IPOHE; 6 days after treatment, g/ha a.i.: I.1 31.25, B.96 70, mixture 31.25+70): 70 | herbicidal activity against IPOHE found (IPOHE; 6 days after treatment, g/ha a.i.: I.1 31.25, B.96 140, mixture 31.25+140): 70 | herbicidal activity against IPOHE found (IPOHE; [1]): 80 | herbicidal activity against IPOHE found (IPOHE; I.1 15.6 g/ha, B.103 7.5 g/ha a.i.): 20 | herbicidal activity against IPOHE found (IPOHE; I.1 15.62 g/ha, B.89 25 g/ha a.i.): 25 | herbicidal activity against IPOHE found (IPOHE; I.1 31.25 g/ha, B.103 15 g/ha a.i.): 70 | herbicidal activity against IPOHE found (IPOHE; I.1 31.25 g/ha, B.89 25 g/ha a.i.): 25 | herbicidal activity against IPOHE found (IPOHE; I.1 62.5 g/ha, B.57 1 g/ha a.i.): 30 | herbicidal activity against IPOHE found (IPOHE; I.1 62.5 g/ha, B.89 12.5 g/ha a.i.): 30 | herbicidal activity against IPOHE found (IPOHE; I.1 62.5 g/ha, B.89 25 g/ha a.i.): 30 | herbicidal activity against IPOHE found (IPOHE; a.i. g/ha: I.1 15.6, B.190 62.5, 20 days after treatment): 50% | herbicidal activity against IPOHE found (IPOHE; a.i. g/ha: I.1 31.25, B.190 62.5, 20 days after treatment): 65% | herbicidal activity against IPOHE found (IPOHE; application rate a.i.: I.1 62.5 g/ha, B.40 (imazethapyr) 7.5 g/ha, alone or as mixture (composition 1.40)): 95
